In brackets after ≈: the same amount, converted by molar mass.
What was measured:
Assay in all cases: ≥ marks a high value that may be exact or a test limit, other limits are often not marked, values filed in µg/mL are converted to µM
Bacillus subtilis 168 = tested on: Bacillus subtilis 168
Staphylococcus aureus = tested on: Staphylococcus aureus
Escherichia coli B = tested on: Escherichia coli B
Pseudomonas aeruginosa = tested on: Pseudomonas aeruginosa
[1] = tested on: Candida albicans F7-39/IDE99
Klebsiella pneumoniae = tested on: Klebsiella pneumoniae
[2] = tested on: Escherichia coli DH5alpha
Salmonella typhimurium = tested on: Salmonella typhimurium
Escherichia coli = tested on: Escherichia coli
Bacillus cereus = tested on: Bacillus cereus
[3] = tested on: Escherichia coli NCTC 10418
[4] = tested on: Candida albicans NCYC 1467
[5] = tested on: Klebsiella pneumoniae ATCC 43816
[6] = tested on: Pseudomonas aeruginosa ATCC 27853
[7] = tested on: Staphylococcus aureus NCTC 10788
[8] = tested on: Staphylococcus aureus NCTC 12493
[9] = tested on: Enterococcus faecalis NCTC 12697

SMILES	MIC (Bacillus subtilis 168) [µM]	MIC (Staphylococcus aureus) [µM]	MIC (Escherichia coli B) [µM]	MIC (Pseudomonas aeruginosa) [µM]	MIC [1] [µM]	further results
CC[C@H](C)[C@H](NC(=O)[C@@H](NC(=O)[C@H](CS)NC(=O)[C@H](Cc1ccc(O)cc1)NC(=O)[C@@H](NC(=O)[C@H](CO)NC(=O)[C@@H]1CCCN1C(=O)[C@@H](NC(=O)[C@@H](NC(=O)[C@H](CCCCN)NC(=O)[C@H](CO)NC(=O)[C@H](C)NC(=O)[C@H](CC(C)C)NC(=O)[C@H](CCCCN)NC(=O)[C@H](Cc1ccccc1)NC(=O)[C@@H](NC(=O)[C@@H](N)C(C)C)C(C)C)C(C)C)C(C)C)C(C)C)[C@@H](C)O)C(=O)N[C@H](C(=O)N[C@@H](CCCCN)C(=O)N[C@@H](CCCCN)C(=O)O)[C@@H](C)O [VVFKLASKVVPSVYCTITKK]	–	–	–	–	–	MIC (Escherichia coli): 116 µM (≈ 256 µg/mL); MIC (Bacillus cereus): ≥ 116 µM
CSCC[C@H](NC(=O)CN)C(=O)N[C@@H](Cc1c[nH]c2ccccc12)C(=O)N[C@@H](CO)C(=O)N[C@@H](CCCCN)C(=O)N[C@@H](CC(C)C)C(=O)N[C@@H](CC(C)C)C(=O)NCC(=O)N[C@@H](Cc1cnc[nH]1)C(=O)N[C@@H](CC(C)C)C(=O)N[C@@H](CC(C)C)C(=O)N[C@@H](CCCN=C(N)N)C(N)=O [GMWSKLLGHLLR]	1.3 (≈ 1.83 µg/mL)	7.7 (≈ 10.9 µg/mL)	3 (≈ 4.23 µg/mL)	20.2 (≈ 28.5 µg/mL)	5 (≈ 7.05 µg/mL)	–
CSCC[C@H](NC(=O)[C@H](C)NC(=O)[C@H](CC(C)C)NC(=O)[C@H](CCCCN)NC(=O)[C@H](CC(C)C)NC(=O)[C@H](CC(C)C)NC(=O)[C@H](CCCCN)NC(=O)[C@H](CCCCN)NC(=O)[C@@H](NC(=O)[C@@H](N)CC(C)C)C(C)C)C(=O)NCC(=O)N[C@@H](Cc1ccccc1)C(=O)NCC(N)=O [LVKKLLKLAMGFG]	3.7 (≈ 5.24 µg/mL)	90 (≈ 128 µg/mL)	14.7 (≈ 20.8 µg/mL)	> 100	25 (≈ 35.4 µg/mL)	–
CC[C@H](C)[C@H](NC(=O)[C@H](C)NC(=O)[C@H](C)NC(=O)[C@@H]1CCCN1C(=O)[C@@H](NC(=O)[C@H](CC(C)C)NC(=O)[C@H](CCCCN)NC(=O)CNC(=O)[C@H](C)NC(=O)[C@@H](NC(=O)[C@H](CCCCN)NC(=O)[C@H](CC(C)C)NC(=O)[C@@H](NC(=O)[C@H](C)NC(=O)CNC(=O)[C@H](CC(C)C)NC(=O)[C@@H](N)Cc1ccccc1)C(C)C)C(C)C)C(C)C)C(=O)N[C@H]1CSSC[C@@H](C(=O)O)NC(=O)[C@H](CCCCN)NC(=O)[C@H](CCCCN)NC(=O)[C@H](CO)NC(=O)[C@H]([C@@H](C)CC)NC(=O)[C@H](CCCCN)NC1=O [FLGAVLKVAGKLVPAAICKISKKC]	–	–	–	–	–	MIC [3]: 4 µM (≈ 9.82 µg/mL); MIC [4]: 2 µM (≈ 4.91 µg/mL); MIC [5]: 8 µM (≈ 19.6 µg/mL); MIC [6]: 32 µM (≈ 78.6 µg/mL); MIC [7]: 2 µM (≈ 4.91 µg/mL); MIC [8]: 4 µM (≈ 9.82 µg/mL); MIC [9]: 8 µM (≈ 19.6 µg/mL)

Now from value to molecule, other results behind:

MIC (Bacillus subtilis 168) [µM]	MIC (Staphylococcus aureus) [µM]	MIC (Escherichia coli B) [µM]	MIC (Pseudomonas aeruginosa) [µM]	MIC [1] [µM]	SMILES	further results
0.8 (≈ 1.13 µg/mL)	7.7 (≈ 10.9 µg/mL)	3.8 (≈ 5.36 µg/mL)	45 (≈ 63.4 µg/mL)	6.2 (≈ 8.74 µg/mL)	CC[C@H](C)[C@H](NC(=O)[C@H](CC(C)C)NC(=O)[C@H](Cc1cnc[nH]1)NC(=O)CNC(=O)[C@H](CC(C)C)NC(=O)[C@@H](NC(=O)[C@H](CCCCN)NC(=O)[C@H](CO)NC(=O)[C@H](Cc1c[nH]c2ccccc12)NC(=O)[C@H](CCSC)NC(=O)CN)[C@@H](C)CC)C(=O)N[C@@H](CCCN=C(N)N)C(N)=O [GMWSKILGHLIR]	–
–	–	–	100 (≈ 185 µg/mL)	–	CC[C@H](C)[C@H](N)C(=O)N[C@@H](CC(C)C)C(=O)N1CCC[C@H]1C(=O)N[C@@H](Cc1c[nH]c2ccccc12)C(=O)N[C@@H](CCCCN)C(=O)N[C@@H](Cc1c[nH]c2ccccc12)C(=O)N[C@@H](C)C(=O)N[C@@H](Cc1c[nH]c2ccccc12)C(=O)N[C@@H](Cc1c[nH]c2ccccc12)C(=O)N[C@@H](C)C(=O)N[C@@H](Cc1c[nH]c2ccccc12)C(=O)N[C@@H](CCCN=C(N)N)C(=O)N[C@@H](CCCN=C(N)N)C(N)=O [ILPWKWAWWAWRR]	MIC (Klebsiella pneumoniae): 25 µM (≈ 46.4 µg/mL); MIC [2]: 15 µM (≈ 27.8 µg/mL); MIC (Salmonella typhimurium): 25 µM (≈ 46.4 µg/mL)

Source: DBAASP
